Measurements reported in patent publication US20260284051A1, “METHIONINE ADENOSYLTRANSFERASE 2A (MAT2A) INHIBITOR COMBINATIONS AND USES THEREOF” (INSILICO MEDICINE IP LIMITED, priority 2023, published 2026).

Experiments:
MAT2A = MAT2A (Homo sapiens, UniProt P31153); test: MAT2A Biochemical Assay; details: read-out: MAT2A enzymatic IC50
Protocol: Example A: MAT2A Biochemical Assay
Compounds described herein were tested as follows:
• (1). Prepared 1×Assay buffer. • (2). Preparation of compound concentration gradient: the compounds test condition were […], 3-fold dilution, 10 doses, singlet or duplicate. 100x concentration compounds were prepared in 384-well plate. Then used Echo 550 to transfer 250 nl to a 384-reaction plate for later use. Added 250 nl of 100% DMSO to the negative and positive control wells. • (3). Prepared 1.67× final concentration enzyme solution with 1×Assay buffer. • (4). Added 15 μl of 1.67× Enzyme solution to the compound wells and positive control wells; added 15 μl of 1×Assay buffer to the negative control wells. • (5). Centrifuged at 1000 rpm for 30 seconds and incubate for 15 minutes. • (6). Prepared 2.5× final concentration Substrate mix solution with 1×Assay buffer. • (7). Added 10 μl of 2.5× final concentration Substrate mix solution to start the reaction. • (8). Centrifuged at 1000 rpm for 30 seconds and incubate for 150 minutes. • (9). Added […] Biomol Green to stop the reaction, centrifuge at 1000 rpm for 30 seconds and incubate for 15 minutes. read O.D.620, process data.
• (1) Using GraphPad Prism 5.
[formula] • (3) Max signal was obtained from the positive control wells. • (4) Min signal was obtained from the negative control wells.

[1] = tested on: HCC15 MTAP null xenografts; test: Efficacy study of HCC15 human lung cancer xenograft model in NOD SCID mice; type: in vivo; details: for Tumor volume (mm^3) Final (mean): Mean ± SD
Protocol: Efficacy Study of HCC15 Human Lung Cancer Xenograft Model in NOD SCID Mice Methods:
The HCC15 cells were maintained in vitro as a monolayer culture in 90% 1640+10% FBS, 100U/ml penicillin and 100 μg/ml streptomycin at 37° C. in an atmosphere of 5% CO2 in air. The tumor cells were routinely subcultured at a ratio of 1:2 to 1:3 every 3-4 days. Alternatively, Cultures were maintained by addition or replacement of fresh medium. Started cultures at 5×10^5 cells/mL and maintained between 0.5×10^5 and 2×10^6 cells/ml.
NOD SCID mice, female, 6-8 weeks, weighing approximately 20-22 g.
Each mouse were inoculated subcutaneously at the right flank with HCC15 cells in a 0.2 mL mixture of 1640 for tumor development (5×10^6 cells/mouse). Dosing was started when the average tumor size reaches approximately 100-200 mm^3 for the tumor efficacy study with tool and med chem molecules to look for efficacy vs vehicle tumor growth.
Mean tumor volume at dosing start was approximately 133.09 mm^3, with ten mice randomized to each treatment group. In the HCC15 MTAP null tumor model, mice were dosed orally, once per day (QD) with Vehicle, once per day (QD) with Compound 1 at 3 mg/kg, once per day (QD) with AG270 at 100 mg/kg, mice were intravenous, per week with Docetaxel at 2.5 mg/kg, or Compound 1 combined with Docetaxel at each dose level.

[2] = tested on: NCI-H838 MTAP null xenografts; test: Efficacy study of NCI-H838 human lung cancer xenograft model in NOD SCID mice; type: in vivo; details: for Tumor volume (mm^3) Final (mean): Mean ± SD
Description: Efficacy Study of NCI-H838 Human Lung Cancer Xenograft Model in NOD SCID Mice Methods:
The NCI-H838 cancer cells were maintained in vitro with RPMI-1640 medium supplemented with 10% fetal bovine serum at 37TC in an atmosphere of 5% CO2 in the air. The cells in exponential growth phase were harvested and quantitated by cell counter before tumor inoculation.
NOD SCID mice, female, 6-8 weeks, weighing approximately 20-22 g, All the mice were purchased from Shanghai Lingchang Bio-Tech Co., Ltd.
Each mouse was inoculated subcutaneously at the right flank with NCI-H838 cells in a 0.1 mL of PBS mixed with Matrigel (1:1) for tumor development (5×10^6 cells/mouse). Dosing was started when the average tumor size reached approximately ~150 mm^3 for the tumor efficacy study with tool and med chem molecules to look for efficacy vs vehicle tumor growth.
Mean tumor volume at dosing start was approximately 146.51 mm^3, with six mice randomized to each treatment group. In the NCI-H838 MTAP null tumor model, mice were dosed orally, once per day (QD) with vehicle, once per day (QD) with Compound 1 at 3, 10 mg/kg, mice were intravenous, once per day (QD) with PRMT5 inhibitor MRTX1719 at 50 mg/kg, or Compound 1 combined with MRTX1719 at each dose level.

[3] = combination: Compound 1 3 mg/kg QD + MRTX1719 50 mg/kg QD
[4] = combination: Compound 1 10 mg/kg QD + MRTX1719 50 mg/kg QD

Chain of MAT2A (P31153 whole entry, species assumed): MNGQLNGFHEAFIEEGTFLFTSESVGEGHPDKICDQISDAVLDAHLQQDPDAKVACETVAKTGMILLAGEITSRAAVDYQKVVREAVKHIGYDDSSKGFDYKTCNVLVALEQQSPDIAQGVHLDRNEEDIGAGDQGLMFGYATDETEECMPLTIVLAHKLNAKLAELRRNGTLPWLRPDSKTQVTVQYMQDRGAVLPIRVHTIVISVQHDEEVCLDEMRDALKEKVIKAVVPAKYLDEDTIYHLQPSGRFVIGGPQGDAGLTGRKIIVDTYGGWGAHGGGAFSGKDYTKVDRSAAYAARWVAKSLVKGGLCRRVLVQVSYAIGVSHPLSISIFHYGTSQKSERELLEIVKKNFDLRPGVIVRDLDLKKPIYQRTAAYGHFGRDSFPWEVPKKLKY

Compound: C#CCNc1nc(=O)n(-c2cccnc2C)c2cc(C(F)(F)F)cc(OC)c12 [Example 36, 5-methoxy-1-(2-methylpyridin-3-yl)-4-(prop-2-yn-1-ylamino)-7-(trifluoromethyl)quinazolin-2(1H)-one]
- IC50 (MAT2A): < 50 nM
- Tumor volume (mm^3) Final (mean) ([1]; Compound 1 3 mg/kg orally QD): 596 ± 63 mm^3
- TGI (%) ([1]; Compound 1 3 mg/kg orally QD, listed as Compound 1, 3 mg/kg): 49.6%
- effect on tumor growth (in words) ([1]; combination of Compound 1 3 mg/kg and Docetaxel 2.5 mg/kg): significantly inhibited tumor growth
- Tumor volume (mm^3) Final (mean) ([1]; combination: Compound 1 3 mg/kg QD + Docetaxel 2.5 mg/kg per week): 399 ± 42 mm^3
- TGI (%) ([1]; combination: Compound 1 3 mg/kg QD + Docetaxel 2.5 mg/kg per week, listed as Compound 1): 71.2%
- TGI (%) ([2]; Compound 1 3 mg/kg orally QD): 1.6%
- Tumor volume (mm^3) Final (mean) ([2]; Compound 1 3 mg/kg orally QD): 2029 ± 239 mm^3
- TGI (%) ([2]; Compound 1 10 mg/kg orally QD): 19.9%
- Tumor volume (mm^3) Final (mean) ([2]; Compound 1 10 mg/kg orally QD): 1678 ± 113 mm^3
- effect on tumor growth (in words) ([2]; combination of Compound 1 (3, 10 mg/kg) and MRTX1719 50 mg/kg): significantly inhibited tumor growth
- synergy effect ([2]; combination: Compound 1 3 mg/kg + MRTX1719 50 mg/kg): 1.02
- TGI (%) [2, 3]: 83.2%
- Tumor volume (mm^3) Final (mean) [2, 3]: 468 ± 115 mm^3
- synergy effect ([2]; combination: Compound 1 10 mg/kg + MRTX1719 50 mg/kg): 1.21
- TGI (%) [2, 4]: 103.1%
- Tumor volume (mm^3) Final (mean) [2, 4]: 88 ± 7 mm^3
